Species: Rattus norvegicus
Assay: Selectivity for rat dopamine D3 receptor over rat dopamine D2L receptor

Ratio Ki | Structure (SMILES)
41.1 | CCCN(CCN1CCN(c2ccccc2OC)CC1)C1CCc2nc(N)sc2C1 (single isomer, unassigned; (-)) [listing 1 of 2 here]
2.4 | CCCN(CCN1CCN(c2ccccc2OC)CC1)C1CCc2nc(N)sc2C1 (single isomer, unassigned; (+)) [listing 1 of 2 here]
2.33 | C#CCN(CCN1CCN(c2ccccc2OC)CC1)C1CCc2nc(N)sc2C1 (stereo not drawn)
32.6 | CCCN(CCN1CCN(c2ccccc2OC)CC1)C1CCc2nc(N)sc2C1 (stereo in doubt; 6b) [listing 1 of 2 here]
45 | CCCN(CCN1CCN(c2ccccc2)CC1)C1CCc2nc(N)sc2C1 (single isomer, unassigned; (+)) [listing 1 of 2 here]

Second part, the compound before the results:

Structure (SMILES) | Ratio Ki
CCCN(CCN1CCN(c2ccccc2)CC1)C1CCc2nc(N)sc2C1 (stereo in doubt; (-)-31) [listing 1 of 2 here] | 58.6
CCCN(CCN1CCN(c2ccccc2)CC1)C1CCc2ccc(O)cc2C1 (stereo not drawn) | 91
CCCN(CCN1CCN(c2cccc(Cl)c2Cl)CC1)C1CCc2nc(N)sc2C1 (stereo in doubt; (-)-33) [listing 1 of 2 here] | 31.6
CCCN(CCN1CCN(c2ccccc2)CC1)C1CCc2[nH]ncc2C1 (stereo not drawn) | 39.3
C#CCN(CCN1CCN(c2cccc(Cl)c2Cl)CC1)C1CCc2nc(N)sc2C1 (stereo not drawn) | 4.92
CCCN(CCN1CCN(c2ccccc2)CC1)C1CCc2c[nH]nc2C1 (stereo not drawn) | 13.7
CCCN(CCN1CCN(c2ccccc2)CC1)C1CCc2oncc2C1 (stereo not drawn) | 5.9
CCCN(CCCCN1CCN(c2ccccc2)CC1)C1CCc2nc(N)sc2C1 (stereo not drawn) | 62
CCCN(CCN1CCN(c2ccccc2)CC1)C1CCc2nocc2C1 (stereo not drawn) | 3.2
CCCN(CCN1CCN(c2ccc(-c3ccccc3)cc2)CC1)C1CCc2nc(N)sc2C1 (single isomer, unassigned; (-)) | 253
CCCN(CCN1CCN(c2ccccc2)CC1)C1CCc2nn[se]c2C1 (stereo not drawn) | 4.64
CCCN(CCN1CCN(c2ccccc2)CC1)C1CCc2nc(N)sc2C1 (stereo in doubt; 6a) [listing 1 of 2 here] | 107
CCCN(CCN1CCN(c2cccc(Cl)c2Cl)CC1)C1CCc2nc(N)sc2C1 (stereo in doubt; 6c) [listing 1 of 2 here] | 37.6
CCCN(CCN1CCN(c2ccccc2)CC1)C1CCc2nnsc2C1 (stereo not drawn) | 4.66
CCCN(CCN1CCN(c2cccc(Cl)c2Cl)CC1)C1CCc2nc(N)sc2C1 (stereo in doubt; (+)-33) [listing 1 of 2 here] | 3.68

Target: T1, D(2) dopamine receptor (Homo sapiens, UniProt P14416)
T1 sequence (P14416 whole entry): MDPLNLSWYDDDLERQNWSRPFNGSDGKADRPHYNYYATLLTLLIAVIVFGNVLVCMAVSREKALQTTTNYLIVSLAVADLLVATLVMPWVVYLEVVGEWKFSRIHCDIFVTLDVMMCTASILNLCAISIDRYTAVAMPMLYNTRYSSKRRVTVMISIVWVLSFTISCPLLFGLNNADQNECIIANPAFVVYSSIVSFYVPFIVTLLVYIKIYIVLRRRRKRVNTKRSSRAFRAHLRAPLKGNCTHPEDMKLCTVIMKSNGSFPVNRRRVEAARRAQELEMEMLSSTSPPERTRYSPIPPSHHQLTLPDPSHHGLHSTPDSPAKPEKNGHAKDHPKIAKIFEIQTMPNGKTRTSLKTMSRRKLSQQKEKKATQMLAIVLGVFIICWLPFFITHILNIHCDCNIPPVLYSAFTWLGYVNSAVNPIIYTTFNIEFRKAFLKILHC
Assay: Agonist activity at human dopamine D2L receptor expressed in CHO cells assessed as stimulation of [35S]GTPgammaS binding relative to dopamine
Type: functional, cell-based

Structure (SMILES) | Emax
CCCN(CCN1CCN(c2cccc(Cl)c2Cl)CC1)C1CCc2nc(N)sc2C1 (stereo in doubt; (-)-33) [listing 1 of 2 here] | 78.8%
CCCN(CCC)C1CCc2ccc(O)cc2C1 (stereo not drawn) | 61.4%
CCCN(CCN1CCN(c2ccc(-c3ccccc3)cc2)CC1)C1CCc2nc(N)sc2C1 (single isomer, unassigned; (-)) | 119%

Tested on: Rattus norvegicus
Assay: Induction of rotational activity in subcutaneously dosed 6-hydroxydopamine unilaterally lesioned rat assessed as contralateral rotation
Type: functional, organism-based

Structure (SMILES) | Activity
CCCN(CCN1CCN(c2cccc(Cl)c2Cl)CC1)C1CCc2nc(N)sc2C1 (stereo in doubt; (-)-33) [listing 1 of 2 here] | Dose-dependent effect
CCCN(CCN1CCN(c2ccc(-c3ccccc3)cc2)CC1)C1CCc2nc(N)sc2C1 (single isomer, unassigned; (-)) | Dose-dependent effect

Tested on: Rattus norvegicus
Assay: Induction of rotational activity in 6-hydroxydopamine unilaterally lesioned rat assessed as number of contralateral rotation at 5 umol/kg, sc after […]
Type: functional

Structure (SMILES) | Activity
CCCN(CCN1CCN(c2ccc(-c3ccccc3)cc2)CC1)C1CCc2nc(N)sc2C1 (single isomer, unassigned; (-)) | 3866
CCCN(CCN1CCN(c2cccc(Cl)c2Cl)CC1)C1CCc2nc(N)sc2C1 (stereo in doubt; (-)-33) [listing 2 of 2 here] | 2766

Tested on: Rattus norvegicus
Assay: Induction of rotational activity in 6-hydroxydopamine unilaterally lesioned rat assessed as number of contralateral rotation at 2.5 umol/kg, sc after 8 hrs
Type: functional

Structure (SMILES) | Activity
CCCN(CCN1CCN(c2ccc(-c3ccccc3)cc2)CC1)C1CCc2nc(N)sc2C1 (single isomer, unassigned; (-)) | 2092
CCCN(CCN1CCN(c2cccc(Cl)c2Cl)CC1)C1CCc2nc(N)sc2C1 (stereo in doubt; (-)-33) [listing 2 of 2 here] | 2281

Target: T1, D(2) dopamine receptor
Assay: not given

Structure (SMILES) | EC50
CCCN(CCN1CCN(c2ccc(-c3ccccc3)cc2)CC1)C1CCc2nc(N)sc2C1 (single isomer, unassigned; (-)) | 19.9 nM
CCCN(CCN1CCN(c2cccc(Cl)c2Cl)CC1)C1CCc2nc(N)sc2C1 (stereo in doubt; (-)-33) [listing 2 of 2 here] | 13.4 nM

Target: D(3) dopamine receptor (Homo sapiens, UniProt P35462)
Sequence (P35462 whole entry): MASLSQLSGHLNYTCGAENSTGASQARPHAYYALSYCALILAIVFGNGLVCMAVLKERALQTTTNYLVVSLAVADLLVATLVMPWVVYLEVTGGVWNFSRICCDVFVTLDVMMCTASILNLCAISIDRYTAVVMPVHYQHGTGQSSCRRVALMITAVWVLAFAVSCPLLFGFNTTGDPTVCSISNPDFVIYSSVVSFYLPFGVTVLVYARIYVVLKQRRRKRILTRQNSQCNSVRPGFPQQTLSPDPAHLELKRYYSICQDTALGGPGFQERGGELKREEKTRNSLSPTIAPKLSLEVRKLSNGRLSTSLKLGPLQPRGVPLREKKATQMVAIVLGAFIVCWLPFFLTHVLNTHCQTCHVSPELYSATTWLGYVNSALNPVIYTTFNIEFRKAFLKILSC
Assay: not given

Structure (SMILES) | EC50
CCCN(CCN1CCN(c2ccc(-c3ccccc3)cc2)CC1)C1CCc2nc(N)sc2C1 (single isomer, unassigned; (-)) | 0.085 nM
CCCN(CCN1CCN(c2cccc(Cl)c2Cl)CC1)C1CCc2nc(N)sc2C1 (stereo in doubt; (-)-33) [listing 2 of 2 here] | 0.06 nM

Target: D(3) dopamine receptor (Rattus norvegicus, UniProt P19020)
Sequence (P19020 whole entry): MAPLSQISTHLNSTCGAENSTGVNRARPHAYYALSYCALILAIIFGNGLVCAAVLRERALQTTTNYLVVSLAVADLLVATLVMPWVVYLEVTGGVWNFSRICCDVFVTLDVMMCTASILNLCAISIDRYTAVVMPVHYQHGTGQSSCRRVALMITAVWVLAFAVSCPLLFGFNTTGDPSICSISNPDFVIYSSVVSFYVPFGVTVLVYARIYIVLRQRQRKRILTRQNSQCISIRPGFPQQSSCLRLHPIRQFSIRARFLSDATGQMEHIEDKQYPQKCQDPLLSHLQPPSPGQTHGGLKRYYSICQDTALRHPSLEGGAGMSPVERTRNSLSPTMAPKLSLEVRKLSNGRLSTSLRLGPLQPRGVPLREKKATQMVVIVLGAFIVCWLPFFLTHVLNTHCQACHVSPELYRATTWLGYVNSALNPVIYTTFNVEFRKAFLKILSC
Assay: biochemical
Description: Displacement of [3H]spiperone from rat dopamine D3 receptor expressed in HEK293 cells

Ki | Structure (SMILES)
44 nM | CCCN(CCN1CCN(c2ccccc2)CC1)C1CCc2nc(N)sc2C1 (single isomer, unassigned; (+)) [listing 2 of 2 here]
5.09 nM | CCCN(CCN1CCN(c2ccccc2OC)CC1)C1CCc2nc(N)sc2C1 (stereo in doubt; 6b) [listing 2 of 2 here]
4.15 nM | CCCN(CCN1CCN(c2ccccc2)CC1)C1CCc2nc(N)sc2C1 (stereo in doubt; (-)-31) [listing 2 of 2 here]
7.01 nM | CCCN(CCN1CCN(c2ccccc2OC)CC1)C1CCc2nc(N)sc2C1 (single isomer, unassigned; (-)) [listing 2 of 2 here]
101 nM | CCCN(CCN1CCN(c2ccccc2OC)CC1)C1CCc2nc(N)sc2C1 (single isomer, unassigned; (+)) [listing 2 of 2 here]
5.96 nM | CCCN(CCN1CCN(c2ccccc2)CC1)C1CCc2nc(N)sc2C1 (stereo in doubt; 6a) [listing 2 of 2 here]
34.8 nM | C#CCN(CCN1CCN(c2ccccc2OC)CC1)C1CCc2nc(N)sc2C1 (stereo not drawn)

Further lines, the compound ahead of its results:

Structure (SMILES) | Ki
CCCN(CCN1CCN(c2ccccc2)CC1)C1CCc2ccc(O)cc2C1 (stereo not drawn) | 1.56 nM
CCCN(CCN1CCN(c2ccccc2)CC1)C1CCc2[nH]ncc2C1 (stereo not drawn) | 46.7 nM
C#CCN(CCN1CCN(c2cccc(Cl)c2Cl)CC1)C1CCc2nc(N)sc2C1 (stereo not drawn) | 7.1 nM
CCCN(CCN1CCN(c2ccccc2)CC1)C1CCc2c[nH]nc2C1 (stereo not drawn) | 188 nM
CCCN(CCN1CCN(c2ccccc2)CC1)C1CCc2oncc2C1 (stereo not drawn) | 155 nM
CCCN(CCN1CCN(c2cccc(Cl)c2Cl)CC1)C1CCc2nc(N)sc2C1 (stereo in doubt; 6c) [listing 2 of 2 here] | 1.82 nM
CCCN(CCCCN1CCN(c2ccccc2)CC1)C1CCc2nc(N)sc2C1 (stereo not drawn) | 12.4 nM
CCCN(CCN1CCN(c2ccccc2)CC1)C1CCc2nocc2C1 (stereo not drawn) | 254 nM
CCCN(CCN1CCN(c2ccc(-c3ccccc3)cc2)CC1)C1CCc2nc(N)sc2C1 (single isomer, unassigned; (-)) | 0.92 nM
CCCN(CCN1CCN(c2ccccc2)CC1)C1CCc2nn[se]c2C1 (stereo not drawn) | 40.7 nM
CCCN(CCN1CCN(c2cccc(Cl)c2Cl)CC1)C1CCc2nc(N)sc2C1 (stereo in doubt; (+)-33) [listing 2 of 2 here] | 12 nM
CCCN(CCN1CCN(c2cccc(Cl)c2Cl)CC1)C1CCc2nc(N)sc2C1 (stereo in doubt; (-)-33) [listing 2 of 2 here] | 1.8 nM
CCCN(CCN1CCN(c2ccccc2)CC1)C1CCc2nnsc2C1 (stereo not drawn) | 160 nM

Target: D(2) dopamine receptor (Rattus norvegicus, UniProt P61169)
Sequence (P61169 whole entry): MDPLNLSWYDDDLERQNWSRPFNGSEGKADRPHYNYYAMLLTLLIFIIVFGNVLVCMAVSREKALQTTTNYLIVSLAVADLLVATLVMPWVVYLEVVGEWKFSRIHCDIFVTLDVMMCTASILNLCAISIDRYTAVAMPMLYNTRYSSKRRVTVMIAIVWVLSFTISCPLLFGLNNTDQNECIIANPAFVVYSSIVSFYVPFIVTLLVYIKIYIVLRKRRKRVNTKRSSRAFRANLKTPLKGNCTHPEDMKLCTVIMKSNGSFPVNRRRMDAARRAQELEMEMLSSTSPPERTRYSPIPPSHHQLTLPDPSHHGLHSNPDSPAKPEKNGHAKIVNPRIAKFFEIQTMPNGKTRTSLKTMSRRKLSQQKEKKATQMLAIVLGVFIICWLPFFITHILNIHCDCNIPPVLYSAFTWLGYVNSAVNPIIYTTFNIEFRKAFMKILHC
Assay: biochemical
Description: Displacement of [3H]spiperone from rat dopamine D2L receptor expressed in HEK293 cells

Ki | Structure (SMILES)
1980 nM | CCCN(CCN1CCN(c2ccccc2)CC1)C1CCc2nc(N)sc2C1 (single isomer, unassigned; (+)) [listing 2 of 2 here]
166 nM | CCCN(CCN1CCN(c2ccccc2OC)CC1)C1CCc2nc(N)sc2C1 (stereo in doubt; 6b) [listing 2 of 2 here]
243 nM | CCCN(CCN1CCN(c2ccccc2)CC1)C1CCc2nc(N)sc2C1 (stereo in doubt; (-)-31) [listing 2 of 2 here]
288 nM | CCCN(CCN1CCN(c2ccccc2OC)CC1)C1CCc2nc(N)sc2C1 (single isomer, unassigned; (-)) [listing 2 of 2 here]
243 nM | CCCN(CCN1CCN(c2ccccc2OC)CC1)C1CCc2nc(N)sc2C1 (single isomer, unassigned; (+)) [listing 2 of 2 here]
639 nM | CCCN(CCN1CCN(c2ccccc2)CC1)C1CCc2nc(N)sc2C1 (stereo in doubt; 6a) [listing 2 of 2 here]
81.2 nM | C#CCN(CCN1CCN(c2ccccc2OC)CC1)C1CCc2nc(N)sc2C1 (stereo not drawn)

Further lines, the compound ahead of its results:

Structure (SMILES) | Ki
CCCN(CCN1CCN(c2ccccc2)CC1)C1CCc2ccc(O)cc2C1 (stereo not drawn) | 142 nM
CCCN(CCN1CCN(c2ccccc2)CC1)C1CCc2[nH]ncc2C1 (stereo not drawn) | 1830 nM
C#CCN(CCN1CCN(c2cccc(Cl)c2Cl)CC1)C1CCc2nc(N)sc2C1 (stereo not drawn) | 34.9 nM
CCCN(CCN1CCN(c2ccccc2)CC1)C1CCc2c[nH]nc2C1 (stereo not drawn) | 2570 nM
CCCN(CCN1CCN(c2ccccc2)CC1)C1CCc2oncc2C1 (stereo not drawn) | 915 nM
CCCN(CCN1CCN(c2cccc(Cl)c2Cl)CC1)C1CCc2nc(N)sc2C1 (stereo in doubt; 6c) [listing 2 of 2 here] | 68.4 nM
CCCN(CCCCN1CCN(c2ccccc2)CC1)C1CCc2nc(N)sc2C1 (stereo not drawn) | 769 nM
CCCN(CCN1CCN(c2ccccc2)CC1)C1CCc2nocc2C1 (stereo not drawn) | 813 nM
CCCN(CCN1CCN(c2ccc(-c3ccccc3)cc2)CC1)C1CCc2nc(N)sc2C1 (single isomer, unassigned; (-)) | 264 nM
CCCN(CCN1CCN(c2ccccc2)CC1)C1CCc2nn[se]c2C1 (stereo not drawn) | 189 nM
CCCN(CCN1CCN(c2cccc(Cl)c2Cl)CC1)C1CCc2nc(N)sc2C1 (stereo in doubt; (+)-33) [listing 2 of 2 here] | 44.2 nM
CCCN(CCN1CCN(c2cccc(Cl)c2Cl)CC1)C1CCc2nc(N)sc2C1 (stereo in doubt; (-)-33) [listing 2 of 2 here] | 56.8 nM
CCCN(CCN1CCN(c2ccccc2)CC1)C1CCc2nnsc2C1 (stereo not drawn) | 746 nM

From ChEMBL document CHEMBL1150260 (J Med Chem, 2008)
